Experimental data taken from US20230372348A1, “LIPID FORMULATIONS OF TRIAZOLOQUINAZOLINONE COMPOUNDS” (Gabather AB, priority 2020, published 2023).

Columns and labels:
[1] = Single dose pharmacokinetic evaluation of formulations in male Sprague Dawley rats; type: in vivo; settings: plasma, iv, rat
Method: Single dose pharmacokinetic evaluations of formulations F12-F22 were carried out using male Sprague Dawley rats using conditions as described in Table 1.
Animal ID's were labelled by pen marks on tail and body weight was recorded for calculation of test item volume before administration. Blood was collected capillary from vena saphena from the rats in EDTA coated collection tubes and centrifuged for five minutes at 2000G. Plasma was transferred to pre-labelled Eppendorf tubes and immediately stored in −20° C. The pharmacokinetic analysis was performed using PK Solutions 2.0™, Noncompartmental Pharmacokinetic Data Analysis software.
Cmax (nM) is the maximum concentration. AUC 0-24 (nM*h) is the area under the curve over 24 hours. Tmax (h) is the maximum time in hours. F % is bioavailability. Frel % is the relative bioavailability.

[2] = Single ascending dose (SAD) study, pharmacokinetics in healthy male subjects; type: in vivo, human
Method: Lipid formulations containing PHOSAL® 53 MCT delivered higher exposure in rat and dog when compared to other formulation (e.g., nanosuspension formulation and PEG formulations). […] Formulation 1H containing 70% PHOSAL® 53 MCT and 30% Labrasol® ALF was selected for manufacturing of soft gelatin capsules for clinical trials with a drug formulation fill weight of 500 mg and a total capsule weight is 696 mg. Two dose strength (0.1 mg/subject and 2 mg/subject) and placebo were produced according to GMP for clinical testing.
The clinical development programme in healthy volunteers started with a double-blind, randomised, placebo controlled single ascending dose (SAD) study in males. Seven dose cohorts received increasing oral doses of Compound (1a) or placebo, dose range 0.05-2 mg. Each cohort consisted of 5-6 subjects receiving Compound (1a) and 2 subjects receiving placebo, with the primary objective to evaluate safety and tolerability, the secondary objective being evaluation of pharmacokinetics (PK).
A summary of PK results from the SAD study are shown below in Table 8.

[3] = tested on: benzodiazepine site of the GABAA receptor complex; settings: cited from earlier work

## Cc1ccc(-n2nc3c4cc(Cc5ccccc5)ccc4[nH]c(=O)n3c2=O)cc1 [Compound (1a), 9-benzyl-2-(4-methylphenyl)-2,6-dihydro[1,2,4]triazolo[4,3-c]quinazoline-3,5-dione]
[1]; intravenously 1 mg/kg (reference), read-out: F % (bioavailability)
  bioavailability: 100%
[1]; intravenously 1 mg/kg, read-out: AUC 0-24
  AUC(0-t): 1180 nM·h
[2]; dose range 0.05 mg-2 mg
  dose proportionality of Cmax: dose proportional
[2]; dose range 0.05 to 2 mg, oral soft gelatin capsules, fasting healthy male volunteers
  dose proportionality of exposure: close to dose proportional
[3]
  selectivity: selective for the GABAA receptor complex
[3]; rat membrane preparations
  inhibition of 3H-Flumazenil binding: very potent inhibitor
[3]; rat membrane preparations, more potent than diazepam
  potency in displacing 3H-Flumazenil relative to diazepam: 10 times
